Data as given in article PMC11678873, “Ketoconazole-Fumaric Acid Pharmaceutical Cocrystal: From Formulation Design for Bioavailability Improvement to Biocompatibility Testing and Antifungal Efficacy Evaluation” (International Journal of Molecular Sciences, 2024).

Assays:
[1] = tested on: BALBc mice; assay: Histopathology of ear sections (MEST); assay type: in vivo
Description: (§1) On day one, under anesthesia, all mice received 30 µL/mouse of Freund’s complete adjuvant (Thermo Scientific™, Waltham, MA, USA), subcutaneously, in the right flank and the abdominal fur was carefully shaved, without skin abrasion. Then animals were treated with 100 µL of locally applied solution (abdominal skin) of each tested substance, in a concentration of 200 µg mL^−1 solved in ethanol 70%, daily for the first 6 days. The left ear thickness of each mouse was measured with an electronic caliper (initial value). Each mouse was treated with 50 µL/ear of the same solution on the left ear pinnae on day 7—challenge and on day 14—rechallenge. Ear thickness was measured at 24 h and 48 h after challenge and rechallenge, respectively. Then mice were humanely sacrificed, under anesthesia, and ears were collected for inflammatory markers (IL1α, IL1β and IL6) assessment and histopathology.
(§2) For histopathological examination, the collected samples (liver and ears) were fixed in 10% buffered neutral formalin, embedded in paraffin, cut at 4 micrometer thickness, and stained using the Hematoxylin–Eosin (H&E) method. The slides were examined under a BX51 Olympus microscope, and images were taken with an Olympus UC 30 digital camera (Olympus, Hamburg, Germany) and processed using the Olympus Stream Basic program.

[2] = tested on: BALBc mice; assay: Inflammatory cytokines in treated ear tissue, ELISA (MEST); assay type: in vivo
Description: (§3) For the oxidative stress assessment, the level of malondialdehyde, a marker of lipid peroxidation, was measured from lysates of liver samples (in vivo) and cells-BJ and HepG2 (in vitro), using the Malondialdehyde Colorimetric Assay Kit (TBA Method) provided by ElabScience. Tissue sample homogenates (liver and ear) were prepared as previously described by David et al.. […] Inflammatory reaction was assessed by measurement of the tumor necrosis factor α (TNFα) in liver samples, using the rat TNFα ELISA kit from EIAAB. IL1α and β and IL6 measurement from the mice ear lysates were completed by ELISA, using the respective kits from Quantikine ELISA Immunoassay kit. Tissue homogenate samples were treated according to manufacturer’s instructions; readings were performed at 450 nm with correction wavelength set at 540 nm, using an ELISA plate reader (Tecan, Grödig, Austria).
as §1

[3] = tested on: BJ dermal fibroblasts; assay: Cell viability, MTS assay, BJ dermal fibroblasts; assay type: cell-based, human; details: for cell viability (effect in words): BJ, 24 h, Figure 4; for IC50: Homo sapiens, Fibroblast, BJ dermal fibroblasts, 24 h exposure, range 0.01–100 µM, MTS
Description: (§4) Dermal fibroblasts (BJ-ATCC CRL-2522™) and hepatocarcinoma cells (HepG2-HB-8065, ATCC, Gaithersburg, MD, USA) were employed. Cell culture medium used was Dulbecco modified Eagle medium (DMEM) supplemented with 5% FCS-fetal calf serum, 50 µg mL^−1 gentamycin, and 5 ng mL^−1 amphotericin, all from Biochrom AG (Berlin, Germany). Medium was changed twice a week. For all experiments, a medium with 2% FCS was used. […] The final concentration of DMSO in the solutions added to the cells was lower than 0.05%, without negative viability effects. Viability was measured using the MTS assay CellTiter 96® AQueous Non-Radioactive Cell Proliferation Assay from (Promega Corporation, Madison, WI, USA), as indicated by the producer. […] Negative controls were treated with medium. Viability was measured through colorimetry, using an ELISA plate reader (Tecan, Männedorf, Switzerland) at 540 nm. All experiments were performed in triplicate. […] Inhibitory concentration (IC50) was calculated. The statistical difference between experimental groups was evaluated by nonparametric Kruskal–Wallis test, followed by Dunns post-test; the statistical significance of the treatments and time exposure within the experimental groups was tested using two-way ANOVA, followed by Bonferroni post-tests; results were considered significant for p < 0.05. […] Statistical package used for data analysis was Prism version 4.00 for Windows, GraphPad Software, San Diego, CA, USA, www.graphpad.com. For IC50 calculation of the cell viability in vitro, the AAT Bioquest was used.

[4] = tested on: BJ dermal fibroblasts; assay: Oxidative damage, malondialdehyde (MDA) in cell lysates, BJ; assay type: cell-based, human; details: 6 µM, 24 h, vs untreated controls
Description: as §3, with “Oxidative stress-induced damage was assessed in vitro by malondialdehyde (MDA) measurement from cell lysates. […] Cell lysates were then prepared as described. The concentration of 6 μM was chosen to mimic the clinical scenario [47]. […] For” for “For”, “manufacturer's” for “manufacturer’s”

[5] = tested on: humans; details: 75 subjects, 500 mg daily for one year; cited from earlier work
[6] = tested on: HepG2 hepatocarcinoma cells; assay: Cell viability, MTS assay, HepG2 hepatocarcinoma cells; assay type: cell-based, human; details: for cell viability (effect in words): HepG2, 24 h, Figure 4; for IC50: Homo sapiens, HepG2 hepatocarcinoma cells, 24 h exposure, range 0.01–100 µM, MTS
Description: as §4

[7] = tested on: HepG2 hepatocarcinoma cells; assay: Oxidative damage, malondialdehyde (MDA) in cell lysates, HepG2; assay type: cell-based, human; details: HepG2, 6 µM, 24 h, vs untreated controls
Description: as §3, with “Oxidative stress-induced damage was assessed in vitro by malondialdehyde (MDA) measurement from cell lysates. […] Cell lysates were then prepared as described. The concentration of 6 μM was chosen to mimic the clinical scenario [47]. […] For” for “For”, “manufacturer's” for “manufacturer’s”

[8] = tested on: Candida albicans; set-up: method as in PMID 1799950; details: ICR mice, systemic Candida albicans infections, intraperitoneal; cited from earlier work
[9] = tested on: BALBc mice; details: mouse, in vivo
[10] = in vivo; details: female, Wistar, rat, po, 20 mg/kg
Description: (§5) Regarding HPLC-MS Quantification, serum samples were processed according to the modified protocol described by Wang et al. [99]. According to this protocol, 0.5 mL of serum was extracted into 3 mL of ethyl acetate by shaking for 3 min, after which the mixture was centrifuged for 8 min at 4000 rpm. The organic layer, after being transferred to a clean tube, was evaporated at 37 °C under a stream of nitrogen. The residue was resuspended in 100 μL acetonitrile and then analyzed using a LC2010 Shimadzu (Shimadzu, Kyoto, Japan) high-performance liquid chromatograph, equipped with diode array (DAD) and quadrupole mass spectrometer (MS) detectors.
(§6) Chromatographic separation was performed on a Grace Alltima C18 column (100 × 3 mm, 3 μm), at a temperature of 40 °C, using acetonitrile-water mixture 1:1 (V/V) with 0.1% formic acid as the mobile phase. The elution was carried out isocratically with 0.4 mL min^−1 flow rate. The injected sample volume was 10 μL. The mass spectrometer parameters were the capillary voltage of 1.5 kV, desolvation temperature of 250 °C, and interface temperature of 200 °C.

[11] = tested on: Wistar rats; assay: Liver histopathology (HE stain); assay type: in vivo; details: oral 20 mg kg^−1 bw, 30 min, 24 h, 7 days
Description: Adult female Wistar rats, 3 months old (200 g body weight), were kept in standard cages type II, 5 animals/cage, in constant conditions of humidity (65%), temperature (21 °C), and day/night cycles of 12 h, fed with standard food (Cantacuzino Institute, Bucharest, Romania) and water ad libitum. […] […] Blood and liver samples were collected.
For the histopathological examination, the liver samples collected from the left lateral lobe and right medial lobe were fixed in 10% buffered neutral formalin, embedded in paraffin, cut at 4 µm thickness, and stained using the Hematoxylin–Eosin (H&E) staining method. The slides were examined under a BX51 Olympus microscope, and images were taken with an Olympus UC 30 digital camera (Olympus, Hamburg, Germany) and processed using the Olympus Stream Basic program.
as §2

[12] = Wistar rats, one oral dose 20 mg kg^−1 bw
Description: as §5, §6

[13] = set-up: method as in PMID 3767339; details: healthy humans, therapeutic oral dose of 200 mg KTZ; cited from earlier work
[14] = BALBc mice, after MEST, HE stain
[15] = BALBc mice, ear collected at R48 h, ELISA, vs control

## O=[N+]([O-])c1ccc(Cl)c([N+](=O)[O-])c1 [DNCB, dinitrochlorobenzene]
[1]; [14]
  histology of ear pinna: contact dermatitis
[2]; [15]
  IL1α in treated ear tissue: significant increase
  IL1β in treated ear tissue: significant increase
  IL6 in treated ear tissue: significant increase

## O=C(O)/C=C/C(=O)O [FUM, trans-2-butenedioic acid]
[3]
  cell viability (effect in words): minimal effect
  IC50: 7.26 µM
[4]
  malondialdehyde (MDA), marker for lipid peroxidation: smaller effect
[1]; mouse, in vivo
  histology of ear pinna: No histological changes
[2]; mouse, in vivo
  IL1α in treated ear tissue: decreased
  IL1β in treated ear tissue: decreased
  IL6 in treated ear tissue: increased
[5]
  adverse effects in humans: no evidence of adverse effects
[6]
  cell viability (effect in words): minimal effect
  IC50: 3.19 µM
[7]
  malondialdehyde (MDA), marker for lipid peroxidation: slightly increased
[8]
  survival of infected mice: prolonged survival and prevented one-fifth of deaths

## CC(=O)N1CCN(c2ccc(OCC3COC(Cn4ccnc4)(c4ccc(Cl)cc4Cl)O3)cc2)CC1 (stereo not drawn) [KTZ, cis-1-acetyl-4-[4-[[(2RS,4SR)-2-(2,4-dichlorophenyl)-2-(1H-imidazol-1-ylmethyl)-1,3-dioxolan-4-yl]methoxy]phenyl]piperazine]
[3]
  cell viability (effect in words): decreased
  IC50: 7.45 µM
[4]
  malondialdehyde (MDA), marker for lipid peroxidation: decreased
[1]; [14]
  histology of ear pinna: No histological changes
[9]
  epicutaneous sensitization, ear thickness: did not induce any allergic reactions
[10]
  AUC(0-t): 3820 ng·h/mL
[10]; Cmax, Wistar rats, one oral dose 20 mg kg^−1 bw, serum
  Cmax: 5820 ± 700 ng/mL
[2]; [15]
  IL1α in treated ear tissue: decreased
  IL1β in treated ear tissue: decreased
  IL6 in treated ear tissue: increased
[11]
  liver histopathology: normal hepatic architecture
[12]
  detection in plasma over time: not detected after 6 h
[13]
  plasma concentration: 5.85 µM
[6]
  cell viability (effect in words): decreased
  IC50: 7.48 µM
[7]
  malondialdehyde (MDA), marker for lipid peroxidation: decreased
